For 43 compounds, Ki results are on record in ChEMBL document CHEMBL1149662, “Design and synthesis of a library of tertiary amides: evaluation as mimetics of the melanocortins' active core” (Bioorg Med Chem, 2007).

Broadly, the Ki is a dissociation constant, usually derived from enzyme kinetics or from competition with a known ligand.

One test addresses Melanocortin receptor 5 (Homo sapiens, UniProt P33032). Nature of the test: Displacement of [125I]NDP-MSH from human recombinant MC5 receptor expressed in Sf9 cells. (In general: Displacement assays read how much labelled ligand stays bound in the presence of the test substance.)
In test [1] the target is Melanocyte-stimulating hormone receptor (Mus musculus, UniProt Q01727). In words: Displacement of [125I]NDP-MSH from MC1 receptor in mouse B16 cells. Format: cell-based.
Sequence of Melanocyte-stimulating hormone receptor (Q01727 whole entry): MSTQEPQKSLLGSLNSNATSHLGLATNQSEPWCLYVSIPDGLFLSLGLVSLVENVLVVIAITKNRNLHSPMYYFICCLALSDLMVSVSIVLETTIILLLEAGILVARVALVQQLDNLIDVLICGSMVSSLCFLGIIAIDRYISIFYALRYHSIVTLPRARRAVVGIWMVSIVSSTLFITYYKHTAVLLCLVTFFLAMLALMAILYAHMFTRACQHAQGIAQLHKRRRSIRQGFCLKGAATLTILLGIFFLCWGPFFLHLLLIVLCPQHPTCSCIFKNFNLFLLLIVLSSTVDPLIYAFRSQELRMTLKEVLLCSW
The target in the next test is Melanocortin receptor 3 (Homo sapiens, UniProt P41968). Nature of the test: Displacement of [125I]NDP-MSH from human recombinant MC3 receptor expressed in Sf9 cells.
Sequence of Melanocortin receptor 3 (P41968 whole entry): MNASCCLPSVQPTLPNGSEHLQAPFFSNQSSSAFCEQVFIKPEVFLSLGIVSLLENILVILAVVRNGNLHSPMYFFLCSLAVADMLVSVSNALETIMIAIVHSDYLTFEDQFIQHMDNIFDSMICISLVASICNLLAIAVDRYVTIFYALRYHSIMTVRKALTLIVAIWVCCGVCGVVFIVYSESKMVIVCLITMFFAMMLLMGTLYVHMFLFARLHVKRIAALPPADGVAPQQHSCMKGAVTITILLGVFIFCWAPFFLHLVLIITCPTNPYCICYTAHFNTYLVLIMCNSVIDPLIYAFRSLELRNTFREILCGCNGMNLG
The target of a further test is Melanocortin receptor 4 (Homo sapiens, UniProt P32245). Nature of the test: Displacement of [125I]NDP-MSH from human recombinant MC4 receptor expressed in Sf9 cells.
Sequence of Melanocortin receptor 4 (P32245 whole entry): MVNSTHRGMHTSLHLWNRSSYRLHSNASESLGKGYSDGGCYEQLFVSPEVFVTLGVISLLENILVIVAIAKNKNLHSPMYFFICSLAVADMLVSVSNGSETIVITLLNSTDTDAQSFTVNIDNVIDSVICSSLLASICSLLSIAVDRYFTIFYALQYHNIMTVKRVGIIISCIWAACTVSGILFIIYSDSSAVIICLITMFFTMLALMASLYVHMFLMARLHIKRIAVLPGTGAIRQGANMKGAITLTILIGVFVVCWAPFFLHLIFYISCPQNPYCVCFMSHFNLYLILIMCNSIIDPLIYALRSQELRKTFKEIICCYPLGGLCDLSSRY

Sequence of Melanocortin receptor 5 (P33032 whole entry): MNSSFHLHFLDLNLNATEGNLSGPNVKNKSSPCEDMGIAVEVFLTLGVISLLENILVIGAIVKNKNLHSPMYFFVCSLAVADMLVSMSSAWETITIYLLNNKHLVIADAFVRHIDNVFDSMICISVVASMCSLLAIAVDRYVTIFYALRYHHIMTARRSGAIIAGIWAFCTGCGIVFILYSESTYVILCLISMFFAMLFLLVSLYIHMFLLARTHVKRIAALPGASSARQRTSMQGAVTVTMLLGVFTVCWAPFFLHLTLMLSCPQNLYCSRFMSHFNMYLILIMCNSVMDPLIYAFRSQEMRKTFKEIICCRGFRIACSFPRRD

Turning to `NCCN(C(=O)CCCc1c[nH]c2ccccc12)C1CCC2(CCCCC2)CC1`, the Ki worked out at 12 µM at Melanocortin receptor 5, 3.2 µM in test [1], 2.7 µM at Melanocortin receptor 3 and 10 µM at Melanocortin receptor 4.
The matching figures for `NCCCCCN(Cc1ccccc1)C(=O)CCCc1c(Cc2ccc(O)cc2)[nH]c2ccccc12`: 5.1 µM, 2 µM, 47 µM and 5 µM.
Consider `NC1CCC(CC2CCC(N(Cc3c(F)cccc3F)C(=O)CCCc3c(Cc4ccc(O)cc4)[nH]c4ccccc34)CC2)CC1` (stereo not drawn), for which the Ki on Melanocortin receptor 5 is 21 µM; in test [1] it was 2.1 µM; at Melanocortin receptor 3 it was 65 µM; on Melanocortin receptor 4, 3 µM.
Take `NC1CCCC(NC(=O)N[C@H]2CC[C@H](N(Cc3ccccc3)C(=O)CCCc3c[nH]c4ccccc34)CC2)C1` (stereo partly drawn): the Ki on Melanocortin receptor 5 came out at 52 µM; in test [1] it was 1.8 µM; on Melanocortin receptor 3, 31 µM; on Melanocortin receptor 4 it was 11 µM.
With `NCCCCCCN(C/C(Cl)=C/c1ccccc1)C(=O)CCCc1c[nH]c2ccccc12`, the inhibitory constant (Ki) on Melanocortin receptor 5 was 21 µM; in test [1] it was 2.4 µM; at Melanocortin receptor 3, 26 µM; on Melanocortin receptor 4, 3.8 µM.
The matching figures for `C/C(=C/c1ccccc1)CN(CCCCCN)C(=O)CCCc1c[nH]c2ccccc12`: 8.7 µM, 3.5 µM, 22 µM and 4.7 µM.
The matching figures for `N=C(N)NCCCN(Cc1ccc2ccccc2c1)C(=O)Cc1c[nH]c2ccccc12`: 28 µM, 35 µM, 228 µM and 150 µM.
The matching figures for `NCCCCCN(C(=O)CCCc1c[nH]c2ccccc12)C1C2CC3CC(C2)CC1C3` (stereo not drawn): 46 µM, 6.1 µM, 25 µM and 14 µM.
For the compound `NCc1ccc(CN(Cc2ccc3ccccc3c2)C(=O)CCCc2c[nH]c3ccccc23)cc1`, the Ki at Melanocortin receptor 5 was determined as 17 µM; in test [1] it was 4 µM; on Melanocortin receptor 3, 40 µM; on Melanocortin receptor 4 it was 11 µM.
Taken in the same sequence, the figures for `NCCN(Cc1ccc2ccccc2c1)C(=O)c1c[nH]c2ccccc12` were 27 µM, 3.6 µM, 134 µM and 66 µM.
The matching figures for `CSc1ccc(CN(C(=O)CCCc2c(Cc3ccc(O)cc3)[nH]c3ccccc23)C2CCC(CC3CCC(N)CC3)CC2)cc1` (stereo not drawn): 8.9 µM, 17 µM, 201 µM and 4.5 µM.
Taken in the same sequence, the figures for `N[C@H]1CC[C@H](NC(=O)NC2CCCC(N(Cc3ccccc3)C(=O)CCCc3c[nH]c4ccccc34)C2)CC1` (stereo partly drawn) were 37 µM, 2.7 µM, 59 µM and 7.3 µM.
Consider `NC1CCC(CC2CCC(N(C/C(Cl)=C/c3ccccc3)C(=O)CCCc3c[nH]c4ccccc34)CC2)CC1` (stereo in doubt; form 3), for which the Ki on Melanocortin receptor 5 was 5.4 µM; in test [1], 2.3 µM; at Melanocortin receptor 3 it was 33 µM; at Melanocortin receptor 4, 5.2 µM.
The matching figures for `N[C@H]1CC[C@H](N(Cc2ccccc2)C(=O)CCCc2c[nH]c3ccccc23)CC1`: 40 µM, 4.3 µM, 50 µM and 8.4 µM.
Turning to `NCCCCCN(C(=O)Cc1c[nH]c2ccccc12)C1CCCCCC1`, the Ki on Melanocortin receptor 5 is 35 µM; in test [1], 6 µM; at Melanocortin receptor 3 it was 14 µM; at Melanocortin receptor 4, 16 µM.
The matching figures for `NC1CCC(CC2CCC(N(Cc3c(F)cccc3Cl)C(=O)CCCc3c(Cc4ccc(O)cc4)[nH]c4ccccc34)CC2)CC1` (stereo not drawn): 15 µM, 1.1 µM, 23 µM and 1.9 µM.
Turning to `NC(N)=NCCCN(Cc1ccc2ccccc2c1)C(=O)CCCc1c[nH]c2ccccc12`, the Ki was found to be 6.1 µM at Melanocortin receptor 5, 1.9 µM in test [1], 7.5 µM on Melanocortin receptor 3 and 6 µM at Melanocortin receptor 4.
Regarding `NCCCCCN(Cc1ccccc1)C(=O)[C@H](N)Cc1ccc([N+](=O)[O-])cc1`, the Ki was 102 µM on Melanocortin receptor 5, 37 µM in test [1], 162 µM on Melanocortin receptor 3 and 96 µM at Melanocortin receptor 4.
For `NCCN(CCCc1ccccc1)C(=O)CCc1c[nH]c2ccccc12`, the Ki at Melanocortin receptor 5 worked out at 20 µM; in test [1], 21 µM; at Melanocortin receptor 3, 127 µM.
In the case of `C=C(Br)CN(C(=O)CCCc1c[nH]c2ccccc12)C1CCC(CC2CCC(N)CC2)CC1` (stereo in doubt; form 1), the Ki on Melanocortin receptor 5 turned out to be 4.9 µM; in test [1], 1.2 µM; at Melanocortin receptor 3, 19 µM; at Melanocortin receptor 4, 3.2 µM.
The matching figures for `N[C@H]1CC[C@H](NC(=O)N[C@H]2CC[C@H](N(Cc3ccccc3)C(=O)CCCc3c[nH]c4ccccc34)CC2)CC1`: 176 µM, 11 µM, 99 µM and 25 µM.
Taken in the same sequence, the figures for `NCCCN(Cc1ccccc1)C(=O)CCCc1c[nH]c2ccccc12` were 25 µM, 17 µM, 45 µM and 16 µM.
Taken in the same sequence, the figures for `NC(N)=NCCCCN(Cc1ccc2ccccc2c1)C(=O)CCc1c[nH]c2ccccc12` were 21 µM, 12 µM, 50 µM and 116 µM.
For `CC(Cc1ccccc1)CN(CCCCCCN)C(=O)c1cc2cc(O)ccc2[nH]1` (stereo not drawn), the Ki at Melanocortin receptor 5 amounted to 31 µM; in test [1], 2.9 µM; at Melanocortin receptor 3, 46 µM; on Melanocortin receptor 4, 9.8 µM.
Taken in the same sequence, the figures for `COC(=O)c1ccc(CN(C(=O)CCCc2c[nH]c3ccccc23)C2CCC(CC3CCC(N)CC3)CC2)cc1` (stereo not drawn) were 9.6 µM, 2.1 µM, 14 µM and 2.2 µM.
Taken in the same sequence, the figures for `NCCCCCCCN(C/C(Cl)=C/c1ccccc1)C(=O)CCCc1c[nH]c2ccccc12` were 29 µM, 5 µM, 42 µM and 7.4 µM.
With `NCCCCN(Cc1ccccc1)C(=O)CCCc1c[nH]c2ccccc12`, the Ki was 20 µM on Melanocortin receptor 5, 12 µM in test [1], 38 µM at Melanocortin receptor 3 and 17 µM at Melanocortin receptor 4.
Consider `NC1CCC(CC2CCC(N(C/C(Cl)=C/c3ccccc3)C(=O)CCCc3c[nH]c4ccccc34)CC2)CC1` (stereo in doubt; form 1), for which the Ki on Melanocortin receptor 5 was determined as 47 µM; in test [1], 0.51 µM; on Melanocortin receptor 3 it was 7.1 µM; on Melanocortin receptor 4, 4.1 µM.
The matching figures for `COc1cc(Cl)c(CN(C(=O)CCCc2c[nH]c3ccccc23)C2CCC(CC3CCC(N)CC3)CC2)cc1OC` (stereo in doubt; form 2): 8.9 µM, 1.9 µM, 25 µM and 1.5 µM.
Taken in the same sequence, the figures for `NCCCN(C/C(Cl)=C/c1ccccc1)C(=O)C(=O)c1c[nH]c2ccccc12` were 4.3 µM, 1 µM, 7.4 µM and 6.8 µM.
Taken in the same sequence, the figures for `NCCCCCN(Cc1ccccc1)C(=O)[C@@H](N)Cc1c[nH]c2ccccc12` were 54 µM, 34 µM, 43 µM and 44 µM.
In the case of `NC1CCC(CC2CCC(N(C/C(Cl)=C/c3ccccc3)C(=O)COc3ccc4ccccc4c3)CC2)CC1` (stereo in doubt; form 1), the Ki in test [1] was 1.9 µM; at Melanocortin receptor 4, 4.7 µM.
As for `NC1CCC(CC2CCC(N(C/C(Cl)=C/c3ccccc3)C(=O)COc3ccc4ccccc4c3)CC2)CC1` (stereo in doubt; form 3), the inhibition constant (Ki) in test [1] was 0.41 µM; on Melanocortin receptor 4 it was 3.4 µM.
The matching figures for `NC1CCC(CC2CCC(N(C/C(Cl)=C/c3ccccc3)C(=O)COc3ccc4ccccc4c3)CC2)CC1` (stereo in doubt; form 7): 1.3 µM and 4 µM.
`NCCN(Cc1ccccc1)C(=O)CCCc1c[nH]c2ccccc12`: the values for the Ki (in test [1]; on Melanocortin receptor 3; on Melanocortin receptor 4) were 22 µM, 49 µM and 21 µM, respectively.
For `NCCN(C/C(Cl)=C/c1ccccc1)C(=O)CCCc1c[nH]c2ccccc12`, the figures for the Ki (in test [1]; on Melanocortin receptor 3; at Melanocortin receptor 4) were 5.6 µM, 65 µM and 5.8 µM, respectively.
On to `NC1CCC(CC2CCC(N(C/C(Cl)=C/c3ccccc3)C(=O)COc3ccc4ccccc4c3)CC2)CC1` (stereo in doubt; form 4), for which the values for the Ki (in test [1]; at Melanocortin receptor 4) were 0.96 µM and 4.4 µM, respectively.
Taken in the same sequence, the figures for `NC1CCC(CC2CCC(N(C/C(Cl)=C/c3ccccc3)C(=O)COc3ccc4ccccc4c3)CC2)CC1` (stereo in doubt; form 6) were 1.9 µM and 5 µM.
Taken in the same sequence, the figures for `NCCCN(C(=O)CCc1c[nH]c2ccccc12)C1CCc2ccccc2C1` (stereo not drawn) were 3.7 µM and 7 µM.
Turning to `NC1CCC(CC2CCC(N(C/C(Cl)=C/c3ccccc3)C(=O)COc3ccc4ccccc4c3)CC2)CC1` (stereo in doubt; form 2), the Ki in test [1] came to 1.5 µM; at Melanocortin receptor 3, 289 µM; at Melanocortin receptor 4 it was 5.9 µM.
With `NCCCCCN(CCCc1ccccc1)C(=O)CCCc1c[nH]c2ccccc12`, the values for the Ki (on Melanocortin receptor 5; in test [1]; at Melanocortin receptor 3) were 19 µM, 18 µM and 61 µM, respectively.
Turning to `C/C(=C/c1ccccc1)CN(CCCCCN)C(=O)/C=C/c1c[nH]c2ccccc12`, the figures for the Ki (at Melanocortin receptor 5; in test [1]; on Melanocortin receptor 4) were 17 µM, 2.7 µM and 99 µM, respectively.
Consider `NC1CCC(CC2CCC(N(Cc3ccncc3)C(=O)CCCc3c[nH]c4ccccc34)CC2)CC1` (stereo in doubt; form 1), for which the inhibition constant (Ki) in test [1] was found to be 2.5 µM; on Melanocortin receptor 3 it was 28 µM; on Melanocortin receptor 4, 7 µM.
